Each structure is given as a SMILES string.

These results are taken from patent US9475817B2 (BRISTOL-MYERS SQUIBB COMPANY, priority 2012, dated 2016).

The target of one test is CK1ε (Homo sapiens (Human), UniProt P49674). Put plainly: CK1ε kinase assay (Caliper LabChip, fluoresceinated peptide substrate). The following applies: 200 pM CK1ε, 50 μM ATP, 1.5 μM peptide substrate, 22 hours room temperature. In kind it is biochemical. As for the experimental part:
(§1) CK1ε and CK1δ Kinase Assays
(§2) The kinase assay was performed in V-bottom 384-well plates. […] The reaction was incubated at room temperature for 22 hours and terminated by adding 45 μl of 35 mM EDTA to each sample. […] Compounds were dissolved at 10 mM in dimethylsulfoxide (DMSO) and evaluated at eleven concentrations. IC50 values were derived by non-linear regression analysis.

A further test concerns the target CK1δ (Homo sapiens (Human), UniProt P48730). Put plainly: CK1δ kinase assay (Caliper LabChip, fluoresceinated peptide substrate). It counts as biochemical. As to conditions: 200 pM CK1δ, 50 μM ATP, 1.5 μM peptide substrate, 22 hours room temperature. As for the experimental part:
as §1, §2

CK1ε, sequence (P49674 whole entry): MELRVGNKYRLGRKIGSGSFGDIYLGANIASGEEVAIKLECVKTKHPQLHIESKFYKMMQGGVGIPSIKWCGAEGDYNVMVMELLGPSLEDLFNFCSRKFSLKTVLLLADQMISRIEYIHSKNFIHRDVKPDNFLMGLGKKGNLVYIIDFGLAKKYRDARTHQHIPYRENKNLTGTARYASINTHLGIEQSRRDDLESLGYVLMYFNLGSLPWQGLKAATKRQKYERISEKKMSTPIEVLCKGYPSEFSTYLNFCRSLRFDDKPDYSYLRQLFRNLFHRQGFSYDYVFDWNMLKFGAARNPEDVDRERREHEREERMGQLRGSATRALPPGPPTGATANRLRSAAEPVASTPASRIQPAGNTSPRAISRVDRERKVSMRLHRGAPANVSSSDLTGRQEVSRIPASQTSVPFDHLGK
CK1δ, sequence (P48730 whole entry): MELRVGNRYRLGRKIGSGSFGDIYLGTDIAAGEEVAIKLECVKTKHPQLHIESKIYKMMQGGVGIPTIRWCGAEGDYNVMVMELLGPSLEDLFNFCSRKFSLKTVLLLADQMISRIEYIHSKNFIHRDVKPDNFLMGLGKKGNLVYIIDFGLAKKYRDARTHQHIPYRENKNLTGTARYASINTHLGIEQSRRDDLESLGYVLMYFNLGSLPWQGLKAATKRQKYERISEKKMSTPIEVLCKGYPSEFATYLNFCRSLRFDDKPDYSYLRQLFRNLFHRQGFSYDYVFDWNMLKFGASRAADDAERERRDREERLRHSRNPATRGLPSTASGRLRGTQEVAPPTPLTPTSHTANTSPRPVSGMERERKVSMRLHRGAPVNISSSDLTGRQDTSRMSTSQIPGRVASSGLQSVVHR

In the case of `Cn1nc(-c2ccc(F)cc2)c(-c2ccc3nc(NC(=O)c4ccnc(N5CCOCC5)c4)cn3n2)c1N1CCN(CCCF)CC1` [Compound 139, N-(6-(3-(4-Fluorophenyl)-5-(4-(3-fluoropropyl)piperazin-1-yl)-1-methyl-1H-pyrazol-4-yl)imidazo[1,2-b]pyridazin-2-yl)-2-morpholinoisonicotinamide], the IC50 (as a rule, the concentration at which inhibition is half-maximal) against CK1ε is 9.3 nM; against CK1δ it was 1.4 nM.
For `Cn1nc(-c2ccc(F)cc2)c(-c2ccc3nc(NC(=O)c4ccncc4)cn3n2)c1C1CCNCC1` [Compound 164, N-(6-(3-(4-Fluorophenyl)-1-methyl-5-(piperidin-4-yl)-1H-pyrazol-4-yl)imidazo[1,2-b]pyridazin-2-yl)isonicotinamide], the IC50 on CK1ε amounted to 3.3 nM; against CK1δ, 0.9 nM.
Taken in the same sequence, the figures for `Cn1nc(-c2ccc(F)cc2)c(-c2ccc3nc(NC(=O)c4ccnc(F)c4)cn3n2)c1N1CCN(CCCF)CC1` [Compound 119, 2-Fluoro-N-(6-(3-(4-fluorophenyl)-5-(4-(3-fluoropropyl)piperazin-1-yl)-1-methyl-1H-pyrazol-4-yl)imidazo[1,2-b]pyridazin-2-yl)isonicotinamide] were 10.1 nM and 0.3 nM.
Taken in the same sequence, the figures for `COc1ccncc1C(=O)Nc1cn2nc(-c3cn(C)nc3-c3ccc(F)cc3)ccc2n1` [Compound 64, N-(6-(3-(4-fluorophenyl)-1-methyl-1H-pyrazol-4-yl)imidazo[1,2-b]pyridazin-2-yl)-4-methoxynicotinamide] were 38.5 nM and 7.1 nM.
With `Cn1cc(-c2ccc3nc(NC(=O)C4CCCCCC4)cn3n2)c(-c2ccc(F)cc2)n1` [Compound 88], the values for the IC50 against CK1ε and against CK1δ were 10.5 nM and 4.2 nM, respectively.
Taken in the same sequence, the figures for `Cn1nc(-c2ccc(F)cc2)c(-c2ccc3nc(NC(=O)c4ccnc(N)c4)cn3n2)c1N1CCN(Cc2ccon2)CC1` [Compound 142, 2-Amino-N-(6-(3-(4-fluorophenyl)-5-(4-(isoxazol-3-ylmethyl)piperazin-1-yl)-1-methyl-1H-pyrazol-4-yl)imidazo[1,2-b]pyridazin-2-yl)isonicotinamide] were 2.2 nM and 0.3 nM.
Taken in the same sequence, the figures for `Cn1cc(-c2ccc3nc(NC(=O)c4cc(F)cc(C#N)c4)cn3n2)c(-c2ccc(F)cc2)n1` [Compound 57, 3-cyano-5-fluoro-N-(6-(3-(4-fluorophenyl)-1-methyl-1H-pyrazol-4-yl)imidazo[1,2-b]pyridazin-2-yl)benzamide] were 22.3 nM and 8.9 nM.
As to `CN1CCN(c2c(-c3ccc4nc(NC(=O)c5ccnc(F)c5)cn4n3)c(-c3ccc(F)cc3)nn2C)CC1` [Compound 116, 2-fluoro-N-(6-(3-(4-fluorophenyl)-1-methyl-5-(4-methylpiperazin-1-yl)-1H-pyrazol-4-yl)imidazo [1,2-b]pyridazin-2-yl)isonicotinamide], the IC50 was found to be 9.3 nM against CK1ε and 0.7 nM at CK1δ.
The corresponding values for `Cn1cc(-c2ccc3nc(NC(=O)c4ccc(OC(F)F)cc4F)cn3n2)c(-c2ccc(F)cc2)n1` [Compound 58, 4-(difluoromethoxy)-2-fluoro-N-(6-(3-(4-fluorophenyl)-1-methyl-1H-pyrazol-4-yl)imidazo[1,2-b]pyridazin-2-yl)benzamide] are 40.9 nM and 6.9 nM.
The corresponding values for `Cc1nc(-c2cccnc2)sc1C(=O)Nc1cn2nc(-c3cn(C4CC4)nc3-c3ccc(F)cc3)ccc2n1` [Compound 109, N-(6-(1-cyclopropyl-3-(4-fluorophenyl)-1H-pyrazol-4-yl)imidazo[1,2-b]pyridazin-2-yl)-4-methyl-2-(pyridin-3-yl)thiazole-5-carboxamide] are 12.3 nM and 2.5 nM.
Taken in the same sequence, the figures for `O=C(Nc1cn2nc(-c3cn(C4CC4)nc3-c3ccc(F)cc3)ccc2n1)c1cccc(-c2cccnc2)c1` [Compound 108, N-(6-(1-cyclopropyl-3-(4-fluorophenyl)-1H-pyrazol-4-yl)imidazo[1,2-b]pyridazin-2-yl)-3-(pyridin-3-yl) benzamide] were 32.6 nM and 2 nM.
